From patent US8999982B2, “Pharmaceutically active compounds as Axl inhibitors” (Lead Discovery Center GmbH, priority 2010, dated 2015) come the findings set out here.

The target in experiment [1] is T1, Axl (Homo sapiens (Human), UniProt P30530). Description: Axl binding assay. Here is the method: Binding of the tracer to the kinase is detected using an EU-labeled anti-tag antibody. […] Binding of an inhibitor to the kinase competes for binding with the tracer, resulting in a loss of FRET-signal. At first a compound according to formula (I) was diluted in 20 mM Hepes pH 8.0, 1 mM DTT, 10 mM MgCl2 and 0.01% Brij35.

The target in experiment [2] is T1, Axl. The experiment can be described thus: Cellular Axl phosphorylation assay. Format: cell-based. The note with it: HEK293 cells transfected with Axl cDNA, 1 hour incubation. The method, then:
3. Cellular Axl Phosphorylation Assay:
HEK293 embryonal kidney fibroblasts were transfected in 96 wells with a plasmid containing Axl cDNA. As transfection reagent Superfect (Qiagen) was used. Transfection of the sole vector backbone served as negative control of Axl expression. After overnight incubation the cellular supernatant was replaced with fresh medium. On the following day the Axl-expressing cells were incubated for 1 hour with a compound according to formula (I) at the suitable concentrations. […] The mesoscale technology was used for quantification.

Counter-ions that a name gives are not always drawn.

T1 sequence (P30530 26-894): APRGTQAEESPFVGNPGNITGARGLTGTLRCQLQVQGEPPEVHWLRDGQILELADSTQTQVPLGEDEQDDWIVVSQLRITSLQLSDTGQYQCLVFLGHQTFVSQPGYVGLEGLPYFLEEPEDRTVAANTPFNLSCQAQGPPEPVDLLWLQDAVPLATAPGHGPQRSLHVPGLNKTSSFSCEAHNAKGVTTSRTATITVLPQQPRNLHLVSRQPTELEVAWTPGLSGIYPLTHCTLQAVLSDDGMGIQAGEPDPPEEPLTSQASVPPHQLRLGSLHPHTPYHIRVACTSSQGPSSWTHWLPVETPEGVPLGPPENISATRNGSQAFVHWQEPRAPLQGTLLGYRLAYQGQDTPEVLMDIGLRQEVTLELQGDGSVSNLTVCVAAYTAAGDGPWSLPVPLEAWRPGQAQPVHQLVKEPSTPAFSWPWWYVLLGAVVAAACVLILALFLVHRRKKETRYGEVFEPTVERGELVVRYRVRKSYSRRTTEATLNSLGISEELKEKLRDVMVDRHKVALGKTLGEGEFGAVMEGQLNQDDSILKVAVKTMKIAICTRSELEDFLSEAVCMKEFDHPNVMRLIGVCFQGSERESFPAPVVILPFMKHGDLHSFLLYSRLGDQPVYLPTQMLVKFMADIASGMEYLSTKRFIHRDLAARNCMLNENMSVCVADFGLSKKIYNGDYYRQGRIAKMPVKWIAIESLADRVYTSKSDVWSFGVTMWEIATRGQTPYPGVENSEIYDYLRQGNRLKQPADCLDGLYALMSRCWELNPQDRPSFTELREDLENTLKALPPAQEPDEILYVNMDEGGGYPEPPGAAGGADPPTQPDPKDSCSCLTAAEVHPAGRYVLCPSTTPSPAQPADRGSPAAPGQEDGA

With `CCOc1cn(-c2ccc(F)cc2)nc1C(=O)Nc1ccc(Oc2ccnc3cc(OCCCN4CCN(C)CC4)c(OC)cc23)c(F)c1` [Example 58, 4-ethoxy-N-[3-fluoro-4-[[6-methoxy-7-[3-(4-methylpiperazin-1-yl)propoxy]-4-quinolyl]oxy]phenyl]-1-(4-fluorophenyl)pyrazole-3-carboxamide], the half-maximal inhibitory concentration (IC50) at Axl [1] and against Axl [2] was less than 500 nM throughout.

On to `CCOc1oc(-c2ccc(F)cc2)nc1C(=O)Nc1ccc(Oc2ccnc3cc(OCCCN)c(OC)cc23)c(F)c1` [Example 56, N-[4-[[7-(3-aminopropoxy)-6-methoxy-4-quinolyl]oxy]-3-fluoro-phenyl]-5-ethoxy-2-(4-fluorophenyl)oxazole-4-carboxamide], for which the IC50 on Axl [1] and at Axl [2] was less than 500 nM each time.

With `CCOc1cn(-c2ccc(F)cc2C)nc1C(=O)Nc1ccc(Oc2ccnc3cc(OCC4CCNCC4)c(OC)cc23)c(F)c1` [Example 74, 4-ethoxy-N-[3-fluoro-4-[[6-methoxy-7-(4-piperidylmethoxy)-4-quinolyl]oxy]phenyl]-1-(4-fluoro-2-methyl-phenyl)pyrazole-3-carboxamide], the IC50 at Axl [1] and on Axl [2] was less than 500 nM each time.

Take `CCOc1cn(-c2cccnc2)nc1C(=O)Nc1ccc(Oc2ccnc3cc(OC)c(OC)cc23)c(F)c1` [Example 105, N-(4-((6,7-dimethoxyquinolin-4-yl)oxy)-3-fluorophenyl)-4-ethoxy-1-(pyridin-3-yl)-1H-pyrazole-3-carboxamide]: the IC50 on Axl [1] and on Axl [2] was less than 500 nM throughout.

As to `COc1cc2c(Oc3ccc(NC(=O)c4nn(-c5ccc(F)cc5)cc4OC)cc3F)ccnc2cc1OCCCN1CCOCC1` [Example 44, N-[3-fluoro-4-[[6-methoxy-7-(3-morpholinopropoxy)-4-quinolyl]oxy]phenyl]-1-(4-fluorophenyl)-4-methoxy-pyrazole-3-carboxamide], the IC50 at Axl [1] and against Axl [2] was less than 500 nM in each case.

Take `COc1cc2c(Oc3ccc(NC(=O)c4nn(-c5ccc(F)cc5)cc4OC)cc3F)ccnc2cc1OCCCN1CCNCC1` [Example 66, N-[3-fluoro-4-[[6-methoxy-7-(3-piperazin-1-ylpropoxy)-4-quinolyl]oxy]phenyl]-1-(4-fluorophenyl)-4-methoxy-pyrazole-3-carboxamide]: the half-inhibitory concentration (IC50) at Axl [1] and on Axl [2] was less than 500 nM in each case.

On to `COc1cc2c(Oc3ccc(NC(=O)c4nn(-c5ccc(F)cc5)cc4OCC4CC4)cc3F)ccnc2cc1OCCCN1CCNCC1` [Example 64, 4-(cyclopropylmethoxy)-N-[3-fluoro-4-[[6-methoxy-7-(3-piperazin-1-ylpropoxy)-4-quinolyl]oxy]phenyl]-1-(4-fluorophenyl)pyrazole-3-carboxamide trifluoroacetic acid salt], for which the IC50 at Axl [1] and against Axl [2] was less than 500 nM throughout.

Turning to `COc1cc2c(Oc3ccc(NC(=O)c4nn(-c5ccc(F)cc5)cc4OCc4ccc(F)cc4)cc3F)ccnc2cc1OCC1CCNCC1` [Example 77, N-[3-fluoro-4-[[6-methoxy-7-(4-piperidylmethoxy)-4-quinolyl]oxy]phenyl]-1-(4-fluorophenyl)-4-[(4-fluorophenyl)methoxy]pyrazole-3-carboxamide], the IC50 at Axl [1] and against Axl [2] was less than 500 nM each time.

Turning to `CCOc1cn(-c2ccc(F)cc2)nc1C(=O)Nc1ccc(Oc2ccnc3cc(OC)c(OC)cc23)c(Cl)c1` [Example 32, N-[3-chloro-4-[(6,7-dimethoxy-4-quinolyl)oxy]phenyl]-4-ethoxy-1-(4-fluorophenyl)pyrazole-3-carboxamide], the IC50 on Axl [1] and against Axl [2] was less than 500 nM throughout.

For the compound `COc1cc2nccc(Oc3ccc(NC(=O)c4nn(-c5ccc(F)cc5)cc4OC)cc3F)c2cc1OC` [Example 17, N-[4-[(6,7-dimethoxy-4-quinolyl)oxy]-3-fluoro-phenyl]-1-(4-fluorophenyl)-4-methoxy-pyrazole-3-carboxamide], the IC50 at Axl [1] and on Axl [2] was less than 500 nM throughout.

As to `COc1cc2c(Oc3ccc(NC(=O)c4nn(-c5ccc(F)cc5)cc4N)cc3F)ccnc2cc1OCCCN1CCOCC1` [Example 53, 4-amino-N-[3-fluoro-4-[[6-methoxy-7-(3-morpholinopropoxy)-4-quinolyl]oxy]phenyl]-1-(4-fluorophenyl)pyrazole-3-carboxamide], the IC50 at Axl [1] and against Axl [2] was less than 500 nM throughout.

Turning to `COc1cc2nccc(Oc3ccc(NC(=O)c4nn(-c5ccc(F)cc5)cc4OCC4CC4)cc3F)c2cc1OC` [Example 18, 4-(cyclopropylmethoxy)-N-[4-[(6,7-dimethoxy-4-quinolyl)oxy]-3-fluoro-phenyl]-1-(4-fluorophenyl)pyrazole-3-carboxamide], the IC50 on Axl [1] and against Axl [2] was less than 500 nM in each case.

With `COc1cc2c(Oc3ccc(NC(=O)c4nn(-c5ccc(F)cc5)cc4OCC4CC4)cc3F)ccnc2cc1OCC1CCNCC1` [Example 75, 4-(cyclopropylmethoxy)-N-[3-fluoro-4-[[6-methoxy-7-(4-piperidylmethoxy)-4-quinolyl]oxy]phenyl]-1-(4-fluorophenyl)pyrazole-3-carboxamide], the IC50 on Axl [1] and against Axl [2] was less than 500 nM each time.

On to `COc1cc2nccc(Oc3ccc(NC(=O)c4csc(-c5ccccc5)n4)cc3F)c2cc1OC` [Example 10, N-[4-[(6,7-dimethoxy-4-quinolyl)oxy]-3-fluoro-phenyl]-2-phenyl-thiazole-4-carboxamide], for which the IC50 on Axl [1] and on Axl [2] was 500 to 5000 nM each time.

With `CCOc1cn(-c2ccc(F)cc2)nc1C(=O)Nc1ccc(Oc2ccnc3cc(OC)c(OC)cc23)cn1` [Example 84, N-[5-[(6,7-dimethoxy-4-quinolyl)oxy]-2-pyridyl]-4-ethoxy-1-(4-fluorophenyl)pyrazole-3-carboxamide], the IC50 on Axl [1] and on Axl [2] was less than 500 nM each time.

Turning to `COc1cc2c(Oc3ccc(NC(=O)c4nn(-c5ccc(F)cc5)cc4OC(C)C)cc3F)ccnc2cc1OCCCN1CCNCC1` [Example 67, N-[3-fluoro-4-[[6-methoxy-7-(3-piperazin-1-ylpropoxy)-4-quinolyl]oxy]phenyl]-1-(4-fluorophenyl)-4-isopropoxy-pyrazole-3-carboxamide], the IC50 at Axl [1] and against Axl [2] was less than 500 nM in each case.

As for `COc1cc2nccc(Oc3ccc(NC(=O)c4nn(-c5ccc(F)cc5)cc4CCN(C)C)cc3F)c2cc1OC` [Example 36, N-(4-((6,7-dimethoxyquinolin-4-yl)oxy)-3-fluorophenyl)-4-(2-(dimethylamino)ethyl)-1-(4-fluorophenyl)-1H-pyrazole-3-carboxamide], the IC50 on Axl [1] and against Axl [2] was less than 500 nM each time.

As for `CCOc1cn(-c2ccc(F)cc2Cl)nc1C(=O)Nc1ccc(Oc2ccnc3cc(OC)c(OC)cc23)cn1` [Example 86, 1-(2-chloro-4-fluoro-phenyl)-N-[5-[(6,7-dimethoxy-4-quinolyl)oxy]-2-pyridyl]-4-ethoxy-pyrazole-3-carboxamide], the 50% inhibitory concentration (IC50) at Axl [1] and against Axl [2] was less than 500 nM each time.

Consider `COCCOc1cn(-c2ccc(F)cc2)nc1C(=O)Nc1ccc(Oc2ccnc3cc(OCCCN4CCOCC4)c(OC)cc23)c(F)c1` [Example 50, N-[3-fluoro-4-[[6-methoxy-7-(3-morpholinopropoxy)-4-quinolyl]oxy]phenyl]-1-(4-fluorophenyl)-4-(2-methoxyethoxy)pyrazole-3-carboxamide], for which the concentration for half-maximal inhibition (IC50) on Axl [1] and against Axl [2] was less than 500 nM each time.

With `CCOc1cn(-c2ccc(F)cc2)nc1C(=O)Nc1ccc(Oc2ccnc3cc(OCCCN4CCNCC4)c(OC)cc23)c(F)c1` [Example 65, 4-ethoxy-N-[3-fluoro-4-[[6-methoxy-7-(3-piperazin-1-ylpropoxy)-4-quinolyl]oxy]phenyl]-1-(4-fluorophenyl)pyrazole-3-carboxamide], the IC50 on Axl [1] and against Axl [2] was less than 500 nM in each case.

For `COc1cc2nccc(Oc3ccc(NC(=O)c4nn(-c5ccc(F)cc5)cc4OCC4CC4)cc3C)c2cc1OC` [Example 30, 4-(cyclopropylmethoxy)-N-[4-[(6,7-dimethoxy-4-quinolyl)oxy]-3-methyl-phenyl]-1-(4-fluorophenyl)pyrazole-3-carboxamide], the IC50 at Axl [1] and on Axl [2] was less than 500 nM throughout.

With `COc1cc2c(Oc3ccc(NC(=O)c4nn(-c5ccc(F)cc5)cc4[N+](=O)[O-])cc3F)ccnc2cc1OCCCN1CCOCC1` [Example 52, N-[3-fluoro-4-[[6-methoxy-7-(3-morpholinopropoxy)-4-quinolyl]oxy]phenyl]-1-(4-fluorophenyl)-4-nitro-pyrazole-3-carboxamide], the half-inhibitory concentration (IC50) at Axl [1] and against Axl [2] was less than 500 nM throughout.

On to `COc1cc2nccc(Oc3ccc(NC(=O)c4nn(-c5ccc(F)cc5)cc4OCCN(C)C)cc3F)c2cc1OC` [Example 19, N-[4-[(6,7-dimethoxy-4-quinolyl)oxy]-3-fluoro-phenyl]-4-(2-dimethylaminoethoxy)-1-(4-fluorophenyl)pyrazole-3-carboxamide], for which the IC50 at Axl [1] and on Axl [2] was less than 500 nM throughout.

For the compound `CCOc1cn(-c2ccc(F)cc2)nc1C(=O)Nc1ccc(Oc2ccnc3cc(OC)c(OC)cc23)c(C)c1` [Example 28, N-[4-[(6,7-dimethoxy-4-quinolyl)oxy]-3-methyl-phenyl]-4-ethoxy-1-(4-fluorophenyl)pyrazole-3-carboxamide], the IC50 at Axl [1] and against Axl [2] was less than 500 nM each time.

With `COc1cc2c(Oc3ccc(NC(=O)c4csc(-c5ccccc5)n4)cc3F)ccnc2cc1OCC1CCNCC1` [Example 81, N-[3-fluoro-4-[[6-methoxy-7-(4-piperidylmethoxy)-4-quinolyl]oxy]phenyl]-2-phenyl-thiazole-4-carboxamide], the values for the IC50 on Axl [1] and on Axl [2] were less than 500 nM and 500 to 5000 nM, respectively.
